The values below come from ChEMBL document CHEMBL5604063, “ASAP - DENV-2 NS2B-NS3 protease fluorescence dose response” (2024).

“And” between values parts separate entries of the source, which are not always exact repeats. Equal values may be shown once. Some results are limits rather than exact numbers.

For the experiment, the target named is Genome polyprotein (dengue virus type 2, UniProt P29990). In kind it is functional, Thailand/16681/1984.
Chain of Genome polyprotein (P29990 1346-1475 limits assumed): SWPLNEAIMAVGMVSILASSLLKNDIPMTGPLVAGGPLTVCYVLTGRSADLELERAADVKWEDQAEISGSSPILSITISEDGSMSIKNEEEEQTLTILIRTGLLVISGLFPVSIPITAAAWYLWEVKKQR
Chain of Genome polyprotein (P29990 1476-2093 limits assumed): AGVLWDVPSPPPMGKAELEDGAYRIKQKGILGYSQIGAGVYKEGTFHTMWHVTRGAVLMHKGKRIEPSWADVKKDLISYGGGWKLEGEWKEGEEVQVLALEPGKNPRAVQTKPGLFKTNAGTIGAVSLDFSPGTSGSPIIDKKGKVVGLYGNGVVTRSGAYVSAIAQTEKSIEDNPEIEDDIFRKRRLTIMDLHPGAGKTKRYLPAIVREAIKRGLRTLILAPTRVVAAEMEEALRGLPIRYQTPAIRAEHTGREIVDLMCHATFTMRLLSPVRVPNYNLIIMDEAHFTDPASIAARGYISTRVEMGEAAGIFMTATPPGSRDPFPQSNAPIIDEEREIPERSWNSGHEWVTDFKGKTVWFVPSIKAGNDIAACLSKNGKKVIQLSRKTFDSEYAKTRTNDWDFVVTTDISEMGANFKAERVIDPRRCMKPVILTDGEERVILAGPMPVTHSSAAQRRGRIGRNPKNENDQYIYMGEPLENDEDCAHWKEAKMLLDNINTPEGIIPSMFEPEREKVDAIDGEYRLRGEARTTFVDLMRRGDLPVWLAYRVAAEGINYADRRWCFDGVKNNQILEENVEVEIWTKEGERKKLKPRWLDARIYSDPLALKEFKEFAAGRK

With `c1ccc2nc(SCc3cn4ccccc4n3)cnc2c1`, the IC50 is > 99.5 µM.

As to `c1ccc(C2CCN(Cc3ccc4nccnc4c3)CC2)nc1`, the IC50 was > 99.5 µM.

As for `c1cc2sccc2c(N2CCN(Cc3ccc4cn[nH]c4c3)CC2)n1`, the IC50 is > 99.5 µM.

As for `Clc1ccc2ncn(Cc3ccc4c(c3)CNC4)c2c1`, the IC50 is > 99.5 µM.

Consider `Clc1ccc2c(c1)ncn2Cc1ccc(-c2nn[nH]n2)cc1`, for which the IC50 is > 99.5 µM.

Regarding `O=C(Nc1ccc2c(c1)CNC2)c1ncc(Br)s1`, the IC50 is > 99.5 µM.

As to `O=C(Nc1ccc2c(c1)CNC2)c1ncnc2ccsc12`, the IC50 was > 99.5 µM.

Consider `Cc1c(C(=O)Nc2cc(CCCN)ccn2)cc(-c2ccccc2)n1C`, for which the IC50 is > 99.5 µM.

On to `O=C(c1cc(Cl)cc2[nH]ncc12)N1CCC[C@H]1C1CCNCC1`, for which the IC50 is > 99.5 µM.

On to `O=C1CCc2cc(NC(=O)c3cc(Cl)cc4[nH]ncc34)ccc2N1`, for which the IC50 was > 99.5 µM.

In the case of `O=C(O)c1sc2cccnc2c1Br`, the IC50 is > 99.5 µM.

Regarding `FC(F)(F)c1nc(CNCc2cocn2)cs1`, the IC50 is > 99.5 µM.

In the case of `Brc1cnn(C2CCN(Cc3csnn3)CC2)c1`, the IC50 is > 99.5 µM.

As to `O=Cc1ccc(N2CCC(C(=O)N3CCN(c4ccc([N+](=O)[O-])cc4C(F)(F)F)CC3)CC2)cc1`, the IC50 is > 99.9 µM.

Regarding `COc1ccc2c(O)nn(S(=O)(=O)c3ccc(C(=O)O)cc3)c2c1`, the IC50 was > 99.5 µM.

Turning to `COc1nc(Cl)c(CSc2nc(C)co2)s1`, the IC50 is > 99.5 µM.

In the case of `NC(=O)c1ccc(Cn2nnc(C=Cc3ccccc3)n2)cc1`, the IC50 was > 99.5 µM.

As for `[O-][S@@+](Cc1nc(-c2cccs2)no1)c1cccs1`, the half-maximal inhibitory concentration (IC50) is > 99.5 µM.

Regarding `O=Cc1ccc(N2CCC(C(=O)Nc3cccc(Br)n3)CC2)cc1`, the IC50 worked out at 14.4 µM.

Take `Cc1nnnn1Cc1ncc(Br)s1`: the IC50 was > 99.5 µM.

In the case of `O=Cc1ccc(N2CCC(C(=O)NCCc3ccc(O)c(O)c3)CC2)cc1`, inhibition was half-maximal at 35 µM (IC50).

Turning to `O=C(O)c1c(Br)sc2nnsc12`, it took 69.5 µM to reach half-maximal inhibition (IC50).

Turning to `C[S@@+]([O-])c1nncn1Cc1ccc(Cl)s1`, the IC50 was > 99.5 µM.

`O=S(=O)(CCOc1ccccc1)c1nccs1`: the IC50 is > 99.5 µM.

For the compound `O=c1[nH]c(CSc2ccccc2Cl)nc2ccsc12`, the half-inhibitory concentration (IC50) is > 99.5 µM.

`CN1[C@@H]2CCC[C@H]1C[C@@H](NC(=O)C1CCN(c3ccc(C=O)cc3)CC1)C2`: 98.7 µM corresponded to half-maximal inhibition (IC50).

In the case of `Cc1nnc(CSc2ncnc3sccc23)o1`, the IC50 was > 99.5 µM.

For the compound `c1nnc(SCCCSc2nncs2)s1`, the IC50 was > 99.5 µM.

Consider `O=c1ccn(Cc2cc(=O)n3ccccc3n2)c2ccsc12`, for which the IC50 was > 99.5 µM.

Turning to `Brc1nc(Br)n(Cc2cscn2)n1`, the IC50 is > 99.5 µM.

As to `Cn1ncnc1Sc1nc(C2CCCC2)ns1`, the IC50 is > 99.5 µM.

On to `NCCCOc1cc(-c2ccc(N)nc2)cc2c1COB2O`, for which the IC50 was > 99.5 µM.

Turning to `O=c1c2ccccc2nnn1CSc1nnc(-c2ccccc2)o1`, the IC50 is > 99.5 µM.

Turning to `O=Cc1ccc(N2CCC(C(=O)N3CCC(N4CCc5ccccc5C4)CC3)CC2)cc1`, the IC50 is > 99.9 µM.

In the case of `COCc1nn(CC#Cc2ccc(Cl)cc2)c(=O)o1`, the IC50 is > 99.5 µM.

In the case of `[O-][S@@+](Cc1ncccn1)c1ncccc1Br`, the IC50 was > 99.5 µM.

For the compound `O=C(Nc1cc(Cl)cc(C(=O)Nc2ccc3c(c2)C[C@H](F)C3)c1)OCc1ccccc1`, the IC50 is > 99.5 µM.

On to `O=S(=O)(c1cccs1)N1CCN(CC=Cc2ccccc2)CC1`, for which the IC50 was > 99.5 µM.

Turning to `N#Cc1ccc(OCCn2nnn(-c3ccccc3)c2=O)cc1`, the IC50 was > 99.5 µM.

For the compound `O=C(O)c1cc2cc(-c3nccc(C(F)F)n3)ccc2[nH]1`, the IC50 is > 99.5 µM.

With `NC[C@@H]1CN(c2cc(-c3ccc(N)nc3)cc3c2COB3O)C(=O)O1`, the IC50 is > 99.5 µM.

On to `N#Cc1ccc(S(=O)(=O)CCn2nc(-c3ccco3)oc2=O)cc1`, for which the half-maximal inhibitory concentration (IC50) is > 99.5 µM.

As for `COCc1cc(Cl)cc(S(=O)(=O)Nc2cccc(-c3nnn[nH]3)c2)c1`, the IC50 was > 99.5 µM.

As to `CSC1(C(=O)N[C@H](CC(=O)Nc2cccc(CN)c2)c2ccc(OCc3ccccc3)c(Br)c2)CCC1`, half-maximal inhibition (IC50) was put at 34.9 µM.

The compound `O=Cc1ccc(N2CCC(C(=O)NC[C@H](O)c3ccc(O)c(O)c3)CC2)cc1` had a half-inhibitory concentration (IC50) of 33.4 µM.

As to `CC(C)[C@@H]1C(=O)O[C@H]1C(=O)O`, the 50% inhibitory concentration (IC50) was > 99.5 µM.

In turn, `O=Cc1ccc(N2CCC(C(=O)NCc3cccc(-c4ccccc4)c3)CC2)cc1` returned an IC50 of 53.3 µM.

With `O=Cc1ccc(N2CCC(C(=O)N3CCC(CCN4CCCC4)CC3)CC2)cc1`, the IC50 was > 99.9 µM.

`O=Cc1ccc(N2CCC(C(=O)NCCc3ccccc3[N+](=O)[O-])CC2)cc1` returned an IC50 of 93.9 µM. This counts as double-digit micromolar.

In turn, `CCN1CCN(c2ccc(NC(=O)C3CCN(c4ccc(C=O)cc4)CC3)cc2)CC1` returned an IC50 of 73 µM. The IC50 values of the last two compounds are within 1.5-fold of each other.

With `CS(=O)(=O)c1ccc(N2CCN(C(=O)C3CCN(c4ccc(C=O)cc4)CC3)CC2)c([N+](=O)[O-])c1`, the IC50 stood at 85.7 µM.

Take `Brc1ccsc1CSc1cnn[nH]1`: the IC50 is > 99.5 µM.

For `O=Cc1ccc(N2CCC(C(=O)NCCN3CCc4ccccc43)CC2)cc1`, 20.3 µM corresponded to half-maximal inhibition (IC50).

As for `Cc1sc2nc(-c3cccs3)[nH]c(=O)c2c1C`, the IC50 was > 99.5 µM.

Consider `Clc1snnc1CN1CCC(c2nc3ccccc3o2)CC1`, for which the IC50 was > 99.5 µM.

Take `O=C(Nc1ccc(Cl)cc1C(=O)Nc1cccc(C2CCNCC2)c1)OCc1ccccc1`: the IC50 was > 99.5 µM.

Turning to `NCc1ccc(COc2ccc(-c3ccc(N)nc3)c3c2OB(O)CC3)cc1`, the IC50 is > 99.5 µM.

In turn, `C[C@H]1c2cc(O)c(O)cc2CCN1C(=O)C1CCN(c2ccc(C=O)cc2)CC1` returned an IC50 of 80.5 µM. In other words, the double-digit micromolar range.

In the case of `Brc1cccc2cn(Cc3ncccn3)nc12`, the IC50 was > 99.5 µM.

Take `O=c1oc2cccnc2n1CC=Cc1ccccc1`: the IC50 is > 99.5 µM.

For `c1ccc2[nH]c(CC3CCN(Cc4nccs4)CC3)nc2c1`, the IC50 was > 99.5 µM.

As for `Cn1c(Sc2nc3ccccc3o2)nc2sccc2c1=O`, the IC50 was > 99.5 µM.

On to `O=C(Nc1cc(Cl)cc(C(=O)Nc2cccc(CO)c2)c1)OCc1ccccc1`, for which the IC50 was > 99.5 µM.

Regarding `O=Cc1ccc(N2CCC(C(=O)NC[C@@H]3CCCN4CCCC[C@H]34)CC2)cc1`, the IC50 was > 99.9 µM.

With `Cc1ccc(CN)cc1-c1cccc([C@H](NC(=O)OCc2ccccc2)C(=O)Nc2cccc(CN)c2)c1`, half-maximal inhibition (IC50) was put at 63.1 µM.

On to `O=C(NCc1ccco1)c1csc(Br)c1`, for which the IC50 is > 99.5 µM.

Regarding `CCNC(=O)Nc1cc(Cl)cc(C(=O)Nc2cccc(C3CCNCC3)c2)c1`, the IC50 was > 99.5 µM.

With `O=Cc1ccc(N2CCC(C(=O)Nc3ccc(Br)cc3O)CC2)cc1`, the IC50 turned out to be 33.9 µM.

Consider `NCCCOc1cc2c(c(-c3ccc(N)nc3)c1)CCB(O)O2`, for which the IC50 was > 99.5 µM.

With `Nc1nc(S(=O)(=O)c2ccccc2)c(Cl)s1`, the IC50 was > 99.5 µM.

For the compound `CC(C)[C@H](N)P(=O)(Oc1ccc(F)cc1)Oc1ccc(F)cc1`, the IC50 was > 99.5 µM.

Turning to `O=Cc1ccc(N2CCC(C(=O)NCCC3CCN(Cc4ccccc4)CC3)CC2)cc1`, the IC50 is 99.7 µM.

Turning to `O=C(NCc1nccs1)c1sccc1Cl`, the IC50 is > 99.5 µM.

In the case of `CN(C)CCC(=O)N1CCC([C@@H](NC(=O)OCc2ccccc2)C(=O)Nc2cccc(CN)c2)CC1`, the IC50 was > 99.5 µM.

For `c1cc(C2CCN(Cc3c[nH]c4ccccc34)CC2)c2ccncc2c1`, the IC50 is > 99.5 µM.

With `c1cc(-c2nnc(NCc3nnn[nH]3)s2)no1`, the IC50 was > 99.5 µM.

Regarding `CC1CCN(CCCCNC(=O)C2CCN(c3ccc(C=O)cc3)CC2)CC1`, the IC50 is > 99.9 µM.

Regarding `O=c1ccc(-n2cncn2)nn1CC=Cc1ccccc1`, the IC50 was > 99.5 µM.

`CCSc1nnc(SCCn2nc3ccccn3c2=O)s1`: the IC50 is > 99.5 µM.

For the compound `COc1ccc(-n2nnnc2SC(F)F)cc1`, the IC50 was > 99.5 µM.

Turning to `O=c1ccccn1-c1ncc(Br)cn1`, the IC50 was > 99.5 µM.

As for `NCc1cccc(NC(=O)[C@@H](NC(=O)OCc2ccccc2)c2cccc(-c3cncnc3)c2)c1`, the IC50 is > 99.5 µM.

`Cc1ccc2cccc(NC(=O)C3CCN(c4ccc(C=O)cc4)CC3)c2n1`: the IC50 came out at 22.4 µM.

For `O=c1c2cccn2cnn1Cc1cnc(Cl)s1`, the IC50 is > 99.5 µM.

Turning to `O=Cc1ccc(N2CCC(C(=O)NCC(=O)c3ccc(O)cc3)CC2)cc1`, half-maximal inhibition (IC50) required 52.9 µM. In other words, the double-digit micromolar range.

In the case of `Cc1nnsc1Cn1ccc(Br)n1`, the IC50 is > 99.5 µM.

For `O=c1c2ccccc2ncn1CCCn1cnc2ccccc2c1=O`, the IC50 was > 99.5 µM.

Turning to `O=S1(=O)CCN(CC#Cc2ccc3sncc3c2)CC1`, the IC50 was > 99.5 µM.

As for `COC(=O)c1cc2scc(Br)c2[nH]1`, the IC50 was > 99.5 µM.

The compound `CC(=O)Nc1cccc(CNC(=O)C2CCN(c3ccc(C=O)cc3)CC2)c1` registered an IC50 of 98.1 µM. This counts as double-digit micromolar.

Regarding `O=C(Nc1cc(Cl)cc(C(=O)N[C@]2(c3nnn[nH]3)CCOC2)c1)OCc1ccccc1`, the IC50 is > 99.5 µM.

Consider `N#Cc1csc(CSc2nnc(C(F)(F)F)s2)n1`, for which the IC50 is > 99.5 µM.

On to `O=Cc1ccc(N2CCC(C(=O)N3CCN(c4cccc(O)c4)CC3)CC2)cc1`, for which the IC50 was 78.2 µM.

Consider `c1cc(Cc2noc(CCc3cscn3)n2)no1`, for which the IC50 was > 99.5 µM.

In turn, `CCn1c(=O)c(N2CC[C@H](CO)C2)nc2ccc(C(=O)OC)cc21` yielded an IC50 of 82.9 µM.

Take `c1csc(CSc2nnc(Cn3cncn3)o2)c1`: the IC50 was > 99.5 µM.

As for `FC(F)(F)c1nnc(COc2cncnc2)s1`, the IC50 is > 99.5 µM.

`O=Cc1ccc(N2CCC(C(=O)Nc3ncc(Br)cc3O)CC2)cc1` gave an IC50 of 19.1 µM.

For `NC(=O)C1(N2CCCCC2)CCN(C(=O)C2CCN(c3ccc(C=O)cc3)CC2)CC1`, the IC50 is > 24.9 µM.

Consider `CCc1cc(C(=O)Nc2cccc(-c3nnn[nH]3)c2)sc1-c1ccc(Cl)cc1`, for which the IC50 was 6.08 µM and 5.66 µM.

The compound `O=Cc1ccc(N2CCC(C(=O)N3CCN(CCc4ccccc4)CC3)CC2)cc1` showed an IC50 of 35.6 µM. This counts as double-digit micromolar.

Consider `CC(C)[C@H]1C(=O)O[C@@H]1C(=O)O`, for which the IC50 is > 99.5 µM.

Regarding `CSCc1nnc(SCc2ccncc2)o1`, the IC50 was > 99.5 µM.

`c1csc(-c2nnc(Sc3ncnc4sccc34)o2)c1`: the IC50 is > 99.5 µM.

Regarding `CC(C)[C@H](NC(=O)[C@@H]1CCCN1C(=O)OCc1ccccc1)P(=O)(Oc1ccc(F)cc1)Oc1ccc(F)cc1`, the IC50 is > 99.5 µM.

Compound `O=C(Nc1cc(Cl)cc(C(=O)Nc2ccc3c(c2)CNCC3)c1)OCc1ccccc1` had an IC50 of 57.8 µM.

What is called IC50 is the concentration that inhibits the measured activity by half. Lower therefore signals greater potency in that assay.
